{"source": "patent US20090191193A1", "about": "“Aryl Vinyl Sulfides, Sulfones, Sulfoxides and Sulfonamides, Derivatives Thereof and Therapeutic Uses Thereof” (TEMPLE UNIVERSITY-OF THE COMMONWEALTH SYSTEM OF HIGHER …, priority 2006, published 2009)", "key": {"[1]": {"system": "DU145 (prostate cancer)", "experiment": "Effect on tumor cell lines, viable cell count by trypan blue exclusion (Latham et al.): DU145", "type": "cell-based", "conditions": "Homo sapiens, DU-145, 96 h, DU145 prostate cancer cells, viable cell count 96 hours after treatment", "description": "(§1) The effect of the compounds of the invention on tumor cells was determined by the assay described by Latham et al., Oncogene 12:827-837 (1996). Tumor cells DU145 (prostate cancer), K562 (chronic myelogenous leukaemia), BT20 (breast carcinoma), H157 (non small cell lung carcinoma), or DLD1 (colon carcinoma) were plated in 6-well dishes at a cell density of 1.0×10^5 cells per 35-mm^2 well. […] The total number of viable cells was determined 96 hours later by trypsinizing the wells and counting the number of viable cells, as determined by trypan blue exclusion, using a hemacytometer. Normal HFL cells were treated with the same compounds under the same conditions of concentration and time."}, "[2]": {"system": "K562 (chronic myelogenous leukaemia)", "experiment": "Effect on tumor cell lines, viable cell count by trypan blue exclusion (Latham et al.): K562", "type": "cell-based", "conditions": "Homo sapiens, K562, 96 h, K562 chronic myelogenous leukaemia cells, viable cell count 96 hours after treatment", "description": "as §1"}}, "data": [{"smiles": "COc1ccc(/C=C(\\C#N)S(=O)(=O)Cc2ccc(Cl)cc2Cl)cc1", "note": "[Example 99]", "values": [{"measurement": "IC50", "setting": "[1]", "value": "> 100", "unit": "µM"}, {"measurement": "IC50", "setting": "[2]", "value": "50 to 100", "unit": "µM"}, {"measurement": "melting point", "value": "114 to 127", "unit": "°C"}]}, {"smiles": "N#C/C(=C\\c1ccc(Cl)cc1)S(=O)(=O)Cc1ccc(Cl)cc1Cl", "note": "[Example 100]", "values": [{"measurement": "IC50", "setting": "[1]", "value": "> 100", "unit": "µM"}, {"measurement": "IC50", "setting": "[2]", "value": "> 100", "unit": "µM"}, {"measurement": "melting point", "value": "119 to 125", "unit": "°C"}]}, {"smiles": "Cc1cc(C)cc(/C=C(\\C#N)S(=O)(=O)Cc2ccc(Br)cc2)c1", "note": "[Example 101]", "values": [{"measurement": "IC50", "setting": "[1]", "value": "> 100", "unit": "µM"}, {"measurement": "IC50", "setting": "[2]", "value": "50 to 100", "unit": "µM"}, {"measurement": "melting point", "value": "169 to 172", "unit": "°C"}]}, {"smiles": "Cc1ccoc1/C=C(\\C#N)S(=O)(=O)Cc1ccc(Cl)cc1Cl", "note": "[Example 103]", "values": [{"measurement": "IC50", "setting": "[1]", "value": "> 100", "unit": "µM"}, {"measurement": "IC50", "setting": "[2]", "value": "50 to 100", "unit": "µM"}, {"measurement": "melting point", "value": "184 to 189", "unit": "°C"}]}, {"smiles": "N#C/C(=C\\c1ccoc1)S(=O)(=O)Cc1ccc(Cl)cc1Cl", "note": "[Example 104]", "values": [{"measurement": "IC50", "setting": "[1]", "value": "> 100", "unit": "µM"}, {"measurement": "IC50", "setting": "[2]", "value": "50 to 100", "unit": "µM"}, {"measurement": "melting point", "value": "116 to 122", "unit": "°C"}]}, {"smiles": "COc1cc(/C=C(\\C#N)S(=O)(=O)Cc2ccc(Cl)cc2Cl)cc(OC)c1OC", "note": "[Example 105]", "values": [{"measurement": "IC50", "setting": "[1]", "value": "25 to 50", "unit": "µM"}, {"measurement": "IC50", "setting": "[2]", "value": "10 to 25", "unit": "µM"}, {"measurement": "melting point", "value": "147 to 152", "unit": "°C"}]}, {"smiles": "COc1ccc(OC)c(/C=C(\\C#N)S(=O)(=O)Cc2ccc(Cl)cc2Cl)c1", "note": "[Example 106]", "values": [{"measurement": "IC50", "setting": "[1]", "value": "50 to 100", "unit": "µM"}, {"measurement": "IC50", "setting": "[2]", "value": "50 to 100", "unit": "µM"}, {"measurement": "melting point", "value": "132 to 137", "unit": "°C"}]}, {"smiles": "COc1cc(OC)c(OC)cc1/C=C(\\C#N)S(=O)(=O)Cc1ccc(Cl)cc1Cl", "note": "[Example 107]", "values": [{"measurement": "IC50", "setting": "[1]", "value": "50 to 100", "unit": "µM"}, {"measurement": "IC50", "setting": "[2]", "value": "> 100", "unit": "µM"}, {"measurement": "melting point", "value": "164 to 170", "unit": "°C"}]}, {"smiles": "N#C/C(=C\\c1ccccc1O)S(=O)(=O)Cc1ccc(Cl)cc1Cl", "note": "[Example 108]", "values": [{"measurement": "IC50", "setting": "[1]", "value": "> 100", "unit": "µM"}, {"measurement": "IC50", "setting": "[2]", "value": "> 100", "unit": "µM"}, {"measurement": "melting point", "value": "219 to 223", "unit": "°C"}]}, {"smiles": "N#C/C(=C\\c1ccc(O)c([N+](=O)[O-])c1)S(=O)(=O)Cc1ccc(Cl)cc1Cl", "note": "[Example 109]", "values": [{"measurement": "IC50", "setting": "[1]", "value": "> 100", "unit": "µM"}, {"measurement": "IC50", "setting": "[2]", "value": "> 100", "unit": "µM"}, {"measurement": "melting point", "value": "169 to 171", "unit": "°C"}]}, {"smiles": "COc1ccc(/C=C(\\C#N)S(=O)(=O)Cc2ccc(Cl)cc2Cl)cc1OC", "note": "[Example 110]", "values": [{"measurement": "IC50", "setting": "[1]", "value": "50 to 100", "unit": "µM"}, {"measurement": "IC50", "setting": "[2]", "value": "25 to 50", "unit": "µM"}, {"measurement": "melting point", "value": "149 to 153", "unit": "°C"}]}, {"smiles": "COc1ccc(/C=C(\\C#N)S(=O)(=O)Cc2ccc(Cl)cc2Cl)c(OC)c1", "note": "[Example 111]", "values": [{"measurement": "IC50", "setting": "[1]", "value": "> 100", "unit": "µM"}, {"measurement": "IC50", "setting": "[2]", "value": "> 100", "unit": "µM"}, {"measurement": "melting point", "value": "165 to 170", "unit": "°C"}]}, {"smiles": "N#C/C(=C\\c1ccccc1)S(=O)(=O)Cc1ccc(Cl)cc1Cl", "note": "[Example 112]", "values": [{"measurement": "IC50", "setting": "[1]", "value": "50 to 100", "unit": "µM"}, {"measurement": "IC50", "setting": "[2]", "value": "50 to 100", "unit": "µM"}, {"measurement": "melting point", "value": "219 to 223", "unit": "°C"}]}, {"smiles": "COc1ccc(/C=C(\\C#N)S(=O)(=O)Cc2ccc(Cl)cc2Cl)c(O)c1", "note": "[Example 113]", "values": [{"measurement": "IC50", "setting": "[1]", "value": "> 100", "unit": "µM"}, {"measurement": "IC50", "setting": "[2]", "value": "> 100", "unit": "µM"}, {"measurement": "melting point", "value": "242 to 247", "unit": "°C"}]}, {"smiles": "Cc1ccoc1/C=C(\\C#N)S(=O)(=O)Cc1cccc(Br)c1", "note": "[Example 114]", "values": [{"measurement": "IC50", "setting": "[1]", "value": "> 100", "unit": "µM"}, {"measurement": "IC50", "setting": "[2]", "value": "> 100", "unit": "µM"}, {"measurement": "melting point", "value": "122 to 126", "unit": "°C"}]}, {"smiles": "N#C/C(=C\\c1ccoc1)S(=O)(=O)Cc1cccc(Br)c1", "note": "[Example 115]", "values": [{"measurement": "IC50", "setting": "[1]", "value": "> 100", "unit": "µM"}, {"measurement": "IC50", "setting": "[2]", "value": "> 100", "unit": "µM"}, {"measurement": "melting point", "value": "128 to 132", "unit": "°C"}]}, {"smiles": "N#C/C(=C\\c1ccc(O)c(O)c1)S(=O)(=O)Cc1cccc(Br)c1", "note": "[Example 116]", "values": [{"measurement": "IC50", "setting": "[1]", "value": "> 100", "unit": "µM"}, {"measurement": "IC50", "setting": "[2]", "value": "> 100", "unit": "µM"}, {"measurement": "melting point", "value": "119 to 121", "unit": "°C"}]}, {"smiles": "N#C/C(=C\\c1cccc(O)c1)S(=O)(=O)Cc1cccc(Br)c1", "note": "[Example 117]", "values": [{"measurement": "IC50", "setting": "[1]", "value": "> 100", "unit": "µM"}, {"measurement": "IC50", "setting": "[2]", "value": "> 100", "unit": "µM"}, {"measurement": "melting point", "value": "160 to 165", "unit": "°C"}]}, {"smiles": "Cc1ccc(/C=C(\\C#N)S(=O)(=O)Cc2ccc(Br)cc2)s1", "note": "[Example 118]", "values": [{"measurement": "IC50", "setting": "[1]", "value": "> 100", "unit": "µM"}, {"measurement": "IC50", "setting": "[2]", "value": "> 100", "unit": "µM"}, {"measurement": "melting point", "value": "142 to 148", "unit": "°C"}]}, {"smiles": "Cc1ccc(C)c(/C=C(\\C#N)S(=O)(=O)Cc2ccc(Br)cc2)c1", "note": "[Example 119]", "values": [{"measurement": "IC50", "setting": "[1]", "value": "> 100", "unit": "µM"}, {"measurement": "IC50", "setting": "[2]", "value": "> 100", "unit": "µM"}, {"measurement": "melting point", "value": "124 to 128", "unit": "°C"}]}, {"smiles": "N#C/C(=C\\c1ccccc1O)S(=O)(=O)Cc1ccc(Cl)cc1", "note": "[Example 121]", "values": [{"measurement": "IC50", "setting": "[1]", "value": "> 100", "unit": "µM"}, {"measurement": "IC50", "setting": "[2]", "value": "> 100", "unit": "µM"}, {"measurement": "melting point", "value": "171 to 176", "unit": "°C"}]}, {"smiles": "N#C/C(=C\\c1ccoc1)S(=O)(=O)Cc1ccc(Cl)cc1", "note": "[Example 122]", "values": [{"measurement": "IC50", "setting": "[1]", "value": "> 100", "unit": "µM"}, {"measurement": "IC50", "setting": "[2]", "value": "> 100", "unit": "µM"}, {"measurement": "melting point", "value": "150 to 154", "unit": "°C"}]}, {"smiles": "Cc1ccc(/C=C(\\C#N)S(=O)(=O)Cc2ccc(Cl)cc2)s1", "note": "[Example 123]", "values": [{"measurement": "IC50", "setting": "[1]", "value": "> 100", "unit": "µM"}, {"measurement": "IC50", "setting": "[2]", "value": "> 100", "unit": "µM"}, {"measurement": "melting point", "value": "148 to 152", "unit": "°C"}]}, {"smiles": "N#C/C(=C\\c1cccc(O)c1)S(=O)(=O)Cc1ccccc1", "note": "[Example 124]", "values": [{"measurement": "IC50", "setting": "[1]", "value": "> 100", "unit": "µM"}, {"measurement": "IC50", "setting": "[2]", "value": "50 to 100", "unit": "µM"}, {"measurement": "melting point", "value": "132 to 135", "unit": "°C"}]}, {"smiles": "N#C/C(=C\\c1ccccc1O)S(=O)(=O)Cc1ccccc1", "note": "[Example 125]", "values": [{"measurement": "IC50", "setting": "[1]", "value": "50 to 100", "unit": "µM"}, {"measurement": "IC50", "setting": "[2]", "value": "> 100", "unit": "µM"}, {"measurement": "melting point", "value": "135 to 138", "unit": "°C"}]}, {"smiles": "COc1ccccc1/C=C(\\C#N)S(=O)(=O)Cc1ccccc1", "note": "[Example 126]", "values": [{"measurement": "IC50", "setting": "[1]", "value": "> 100", "unit": "µM"}, {"measurement": "IC50", "setting": "[2]", "value": "> 100", "unit": "µM"}, {"measurement": "melting point", "value": "169 to 172", "unit": "°C"}]}, {"smiles": "Cc1ccoc1/C=C(\\C#N)S(=O)(=O)Cc1ccccc1", "note": "[Example 128]", "values": [{"measurement": "IC50", "setting": "[1]", "value": "> 100", "unit": "µM"}, {"measurement": "IC50", "setting": "[2]", "value": "50 to 100", "unit": "µM"}, {"measurement": "melting point", "value": "118 to 121", "unit": "°C"}]}]}
